{
  "source": "paper PMC11329504",
  "about": "“Identification of novel small molecule-based strategies of COL7A1 upregulation and readthrough activity for the treatment of recessive dystrophic epidermolysis bullosa” (Scientific Reports, 2024)",
  "key": {"[1]": {"tested_on": "total (truncated + full length) C7 in RDEB_L1 cells", "assay": "AlphaLISA quantification of total C7 in RDEB_L1 cells", "type": "cell-based, human", "description": "(§1) The AlphaLISA assay was developed in-house by using the biotin-conjugated rabbit polyclonal antibody anti-C7 (LSBio LS-298147) and conjugating the acceptor beads (PerkinElmer 6772001) to a monoclonal anti-Collagen type VII antibody produced in mouse, clone LH7.2 (Thermo MA5-13,432). Formulation of the mAb clone LH7.2 was exchanged to PBS and concentrated 5 × by using Amicon® Ultra-0.5 centrifugal filters up to 1 mg/ml. The conjugation procedure was carried out according to the protocol provided by PerkinElmer.\n(§2) For compound treatment in RDEB patient-derived transformed keratinocytes, 5,000 cells were plated in 20 µL of supplemented KGM media containing 20 ng/mL TGFβ2 (SIGMA GF113) without GA-1000 in 384-well cell culture plates (Greiner 781098). The day after, 5 µL of test compounds prepared 5 × in supplemented KGM without GA-1000 were added over cells and incubated for 48 h at 37 °C and 5% CO2. For compound treatment in HEK293^R578X, 10,000 cells were plated in 20 μL of DMEM (High Glucose, 2 mM L-Glutamine, sodium pyruvate, and FBS 10%) in 384-well cell culture plates (Greiner 781,098,). The day after, 5 μL of test compounds prepared 5 × in DMEM complete medium were added over cells and incubated for 48 h at 37 °C and 5% CO2.\n(§3) After the treatment process, 2.5 µL of RIPA buffer 10 x (Abcam ab156034) were added over the […] of cells for 20 min at room temperature to obtain a complete cell lysis. Then, 2 μL of sample (i.e., cell lysate with supernatant) were transferred to the AlphaLISA plate (PerkinElmer 6,059,340) containing […] of antibodies mixture ([…] of acceptor Beads-Ab and […] of biotin-rAb) prepared in AlphaLISA buffer 1 x (PerkinElmer AL00F). The reaction was incubated for 90 min at room temperature. Finally, 10 μL of […] of donor beads (PerkinElmer 6760002,) were added to the reaction under subdued light, mixed gently, and incubated for 3 h at room temperature. AlphaLISA signal was detected with an Envision microplate reader (Perkin Elmer) using the following setting: Filter: AlphaScreen, Excitation time: 180 ms, Integration time: 300 ms.\n(§4) Statistical analyses were performed using GraphPad Prism v. 7.04 (La Jolla, California). Results are shown as mean ± SD of experimental replicates. Dose–response curves to assess compound treatment effect were plotted in a four-parameter logistic model. Relative EC50, representing the total drug concentration producing a 50% effect, was calculated in the four-parameter logistic equation. Comparisons of collagen protein and mRNA expression in different experimental conditions were made using ANOVA, followed by a post hoc test. statistical significance was considered with p values < 0.05."}, "[2]": {"tested_on": "total (truncated + full length) C7 in RDEB_L5 cells", "assay": "AlphaLISA quantification of total C7 in RDEB_L5 cells", "type": "cell-based, human", "description": "as §1, §2, §3, §4"}, "[3]": {"tested_on": "total C7 in HEK293^R578X cells", "assay": "AlphaLISA quantification of total C7 in recombinant HEK293^R578X cells", "type": "cell-based, human", "description": "as §1, §2, §3, §4"}, "NHK cells": {"tested_on": "NHK cells", "assay": "Cytotoxicity, ATP levels, normal human keratinocytes (NHK)", "type": "cell-based", "settings": "NHK cells, ATP levels, at 40 µM", "description": "The viability of RDEB patient-derived cell lines or NHK was evaluated by measuring the ATP levels as an indirect readout of the potential cytotoxicity effect of compounds. Cells were plated and treated exactly with the same conditions as those followed in the AlphaLISA assay, described above. To measure ATP levels, cells were processed using the ATPlite™ 1step luminescence-based assay (PerkinElmer 6,016,731), following the manufacturer’s protocol. 25 μL of ATPlite™ reagent was added directly over cells and plates were covered with a sealing film and shaken for 25 min using a microtiter plate shaker. Luminescence was measured in a Luminoskan Ascent luminometer (Thermo Fisher Scientific). 10 μM of Staurosporine was used as a reference compound and control for the total cytotoxicity."}, "[4]": {"tested_on": "truncated and full-length C7 in RDEB_L1, RDEB_L5 and HEK293^R578X cells", "assay": "Western blot detection of truncated and full-length C7", "type": "cell-based, human", "settings": "RDEB_L1, RDEB_L5 and HEK293^R578X cells", "description": "For western blot, RDEB or normal human keratinocytes were lysed in protein extraction buffer (50 mM Tris–HCl [pH 7.5], 100 mM NaCl, 1% Nonidet P-40, and 4 mM EDTA) containing proteinase inhibitors cocktail (Complete Mini, EDTA free; Roche Diagnostics, Mannheim, Germany). Lysates were incubated for 30 min on ice and centrifuged at 15,000 g for 30 min at 4 °C. Supernatants were then collected and concentrated by ultrafiltration using Amicon Ultra columns (10 kDa; Millipore, Ireland). Protein concentrations were measured using the Bradford assay (Bio-Rad, Hercules, CA). For each sample, […] total protein was resolved on NuPAGE Novex 3%–8% Tris–Acetate gel electrophoresis (Invitrogen, Carlsbad, CA) and electrotransferred to nitrocellulose membranes (Invitrogen, Carlsbad, CA). For type VII collagen analysis, blots were probed with a monospecific polyclonal anti-C7 antibody (a generous gift from Dr. A. Nystrom, University of Freiburg). Invitrogen anti-MDH1 polyclonal antibody (PA550446, 1:1000) was used to detect MDH1. Standard antibodies against a reference protein were used as a loading control, as indicated. Visualization of the resulting signal was performed by incubating with horseradish peroxidase (HRP)- conjugated anti-rabbit antibody (Amersham, Burlington, MA) and West Pico Chemiluminescent Substrate (Pierce, Rockford, IL)."}},
  "note": "Like-named read-outs stand apart in the source and are kept apart here.",
  "data": [
    {"smiles": "CN[C@@H]1[C@@H](O)[C@@H](O[C@@H]2[C@@H](O)[C@H](O[C@H]3O[C@H]([C@@H](C)O)[C@@H](O)[C@H](O)[C@H]3N)[C@@H](N)C[C@H]2N)OC[C@]1(C)O", "note": "[Compound G418, G418, reference compound]", "values": [
      {"measurement": "Increase in C7 levels Emax, % vs baseline", "setting": "[1]; RDEB_L1 cells, at 20 µM, 20 ng/mL TGFß2", "value": "124 ± 76", "unit": "at 20 % vs baseline"},
      {"measurement": "EC50", "setting": "[1]; RDEB_L1 cells, read-out: EC50 in the AlphaLISA assay", "value": 4.9, "unit": "µM"},
      {"measurement": "EC50", "setting": "[1]; in RDEB_L1 and RDEB_L5 cells, read-out: EC50 (range over two cell lines)", "value": "4.9 to 12", "unit": "µM"},
      {"measurement": "Increase in C7 levels Emax, % vs baseline", "setting": "[2]; at 25 µM, 20 ng/mL TGFß2", "value": 35.5, "unit": "at 25 % vs baseline"},
      {"measurement": "EC50", "setting": "[2]; total C7 AlphaLISA, 48 h, 20 ng/mL TGFß2, relative EC50, mean ± SD, read-out: Increase in C7 levels EC50", "value": 12, "unit": "µM"},
      {"measurement": "Increase in C7 levels Emax, % vs baseline", "setting": "[3]; at 40 µM", "value": "71 ± 6", "unit": "at 40 % vs baseline"},
      {"measurement": "EC50", "setting": "[3]; total C7 AlphaLISA, 48 h, relative EC50, mean ± SD, read-out: Increase in C7 levels EC50", "value": "16 ± 0.09", "unit": "µM"},
      {"measurement": "Cytotox. % inhibition of viability", "setting": "NHK cells", "value": "30.8% ± 3.4 at 40 (n=4)"},
      {"measurement": "C7 products induced, western blot", "setting": "[4]", "value": "detectable upregulation of full length and truncated C7"}
    ]}
  ]
}
